Experiments:
[1] = biological target: diacylglycerol acyltransferase; assay: Inhibitory activity against diacylglycerol acyltransferase derived from rat (rat liver microsome fraction); format: biochemical; settings: 23° C., 15 minutes, read-out: concentration which inhibited 50% of the diacylglycerol acyltransferase
Method: A diacylglycerol acyltransferase activity was measured by means of a partially modified version of a method of Mayorek and Bar-Tana (Journal of Biological Chemistry, vol. 260, pp. […], 1985). That is, using a microsome fraction prepared from a rat liver as an enzyme source, 0.75 mM 1,2-dioleoyl-sn-glycerol and 30 μM [1-^14C]palmitoyl-CoA (0.02 μCi) were added to 175 mM tris-hydrochloric acid (HCl)(pH: 8.0) buffer containing 8 mM MgCl2, 1 mg/ml bovine serum albumin and 2.5 mM diisopropyl fluorophosphonate to a total volume of 200 μL. The mixture was allowed to react at 23° C. for 15 minutes. […] Thereafter, the radioactivity of a triacylglycerol fraction was measured by an RI radio scanner (manufactured by AMBIS CO., LTD.) to measure the diacylglycerol acyltransferase activity.

[2] = tested on: Raji cell derived from human Burkitt lymphoma; assay: Inhibitory activity against production of triacylglycerol in human-derived cell (Raji); format: cell-based; settings: 0.5 h, [1-14C]oleic acid, 37° C., 30 minutes, read-out: concentration which inhibited 50% of production of triacylglycerol
Method: An influence on production of triacylglycerol was examined in accordance with a method by TOMODA et al. (Journal of Biological Chemistry, vol. 266, pp. 4,212 to 4,219, 1991) by use of a human-derived cell (Raji cell derived from human Burkitt lymphoma). 200 μl of 2.7×10^5 cells/ml of Raji cell solution [1-^14C]oleic acid (0.02 μCi) was allowed to react at 37° C. for 30 minutes. After all lipids were extracted from a mixed solution of chloroform and methanol (mixing ratio=1:2), a measurement was carried out by use of the same method as used for the inhibitory activity against diacylglycerol acyltransferase derived from a rat. The concentrations of the roselipin R-3A, R-3B, R-4 and R-5 compounds which inhibited 50% of production of triacylglycerol were measured.

[3] = tested on: Bacillus subtilis KB27; assay: Paper disk growth inhibition circle; format: cell-based; settings: Bacillus subtilis KB27 (synthetic medium); 10 μg on 6 mm filter paper
[4] = tested on: Acholeplasma laidlawii KB174; assay: Paper disk growth inhibition circle; format: cell-based; settings: 10 μg on 6 mm filter paper
[5] = tested on: Mucor racemosus KF223; assay: Paper disk growth inhibition circle; format: cell-based; settings: 10 μg on 6 mm filter paper
[6] = tested on: Pyricularia oryzae KB180; format: cell-based; settings: 10 μg on 6 mm filter paper

Row | SMILES | IC50 [1] | IC50 [2] | Diameter of Inhibition Circle [3] | Diameter of Inhibition Circle [4] | Diameter of Inhibition Circle [5] | Diameter of Inhibition Circle [6]
1 | CCC(C)CC(C)CC(C)C(O)C(C)/C=C(\C)C(O)C(C)/C=C(\C)C(O)C(C)/C=C(\C)C(=O)OC[C@@H](O)[C@@H](O)[C@H](O)CO (stereo partly shown) [roselipin R-3A] | 60 µM | 11 µM | 10 mm | 10 mm | 14 mm | –
2 | CCC(C)CC(C)CC(C)C(O)C(C)/C=C(\C)C(O)C(C)/C=C(\C)C(O)C(C)/C=C(\C)C(=O)OC[C@@H](O)[C@H](O)[C@H](O)CO (stereo partly shown) [roselipin R-3B] | 33 µM | 10 µM | – | – | – | –
3 | CCC(C)CC(C)CC(C)C(O[C@@H]1OC(CO)[C@@H](O)C(O)C1O)C(C)/C=C(\C)C(O)C(C)/C=C(\C)C(O)C(C)/C=C(\C)C(=O)OC (stereo partly shown) [roselipin R-4] | > 762 µM | 200 µM | – | – | 12 mm | 16 mm
4 | CCC(C)CC(C)CC(C)C(O)C(C)/C=C(\C)C(O)C(C)/C=C(\C)C(OC)C(C)/C=C(\C)C(=O)OC (stereo not shown) [roselipin R-5] | > 984 µM | 250 µM | – | – | – | –
